What was measured:
MMP-9 [1] = assay: PMA-induced MMP-9 activity in cultured macrophages (U937), gelatin zymogram; assay type: cell-based; conditions: U937 cells pretreated with substance, then stimulated with 10 nmol/L PMA, FIG. 2 A-C
Method: (§1) The human AAA wall was homogenized, the obtained samples were evaluated for GLUT-3 protein expression by Western blot, and MMP-9 activity was determined by zymography. Western blot analysis was conducted by subjecting 10 μg of the extracted protein (quantified) to SDS-polyacrylamide gel electrophoresis for separation, subsequently transferring and immobilizing the resultant onto a membrane to prepare a blot, carrying out a reaction of the blot with an anti-GLUT-3 antibody for 1 hour and then with a secondary antibody, and then detecting signals. Meanwhile, zymogram analysis was conducted by subjecting 5 μg of the extracted protein (quantified) to electrophoresis on a zymogram gel plate to separate the protein. The method employed thereafter was carried out according to the instructions of a kit (Invitrogen). After 24 hours of a reaction at 37° C., zymogram gel was stained overnight with a Coomassie blue solution and then destained, and then enzyme activity was detected.
(§2) In this example, 2-DG, cytochalasin, or phloretin was administered to evaluate the suppression of MMP-9 activity in cultured macrophages or the human AAA wall, using a zymogram used in Example 1.
In the meantime, U937 cells were pretreated with a glucose transporter inhibitor (cytochalasin or phloretin), and then stimulated with 10 nmol/L PMA. In addition, U937 cells were pretreated with 2-DG and then stimulated with 10 nmol/L PMA. Furthermore, 2-DG was administered to the ex vivo culture of human AAA wall.
In panels A to D, “MMP-9 (L)” denotes latent MMP-9 activity and “MMP-9 (A)” denotes active MMP-9 activity. In addition, in panel D, “MMP-2 (L)” denotes latent MMP-2 activity and “MMP-2 (A)” denotes active MMP-2 activity. Moreover, in panel D, “control” denotes an aqueous solvent not containing 2-DG.

[2] = system: abdominal aorta aneurysm formation; assay: Angiotensin II-induced apolipoprotein E knockout mouse aneurysm model; assay type: in vivo; conditions: angiotensin II-induced apolipoprotein E knockout mice; 1 g/kg body weight/day intraperitoneally for 28 days; FIG. 4
Method: Each angiotensin II-induced apolipoprotein E knockout mouse was produced by subcutaneous administration of a pressor peptide, angiotensin II (1000 ng/kg/min), to a 12-week-old apolipoprotein E-deficient mouse via osmotic pump for 28 days. After osmotic pump implantation, 2-DG was intraperitoneally administered at 1 g/kg body weight/day for 28 days (the number of mice (n)=14). After 28 days of administration, the abdominal aorta was removed and then the aortic diameter was measured. As negative control, the abdominal aorta was similarly removed from mice (the number of mice (n)=14) produced by administration of saline instead of 2-DG, and then the aortic diameter was measured.

SIRT1 gene = SIRT1 gene expression in cultured macrophages; assay type: cell-based; conditions: U937 cells pretreated with 2 mg/mL, then PMA; 24 hours after stimulation; FIG. 6 C
Method: In this example, the effect of 2-DG was evaluated on the expression of SIRT1 gene in cultured macrophages. […] Gene expression was evaluated at the mRNA level in a manner similar to that used in Example 4.
In the meantime, 2-DG (2 mg/mL) was pretreated to the U937 cell culture solution, and stimulated them with PMA. As control cells, monocytic cells (U937) to which neither phorbol ester nor 2-DG had been administered and monocytic cells (U937) to which only phorbol ester had been administered were used. At 24 hours after stimulation, SIRT1 gene expression levels were compared, and the results are shown in panel C of FIG. 6.

[3] = system: MMP-1, CCL-2, TNF-α, MMP-9, CCL-8 and IL-6 gene expression; assay: Expression of atherosclerosis/aneurysm-related genes in cultured macrophages by DNA microarray; assay type: cell-based; conditions: U937 cells pretreated, then 10 nmol/L PMA, 24 hours after stimulation, FIG. 5
Method: In this example, the effects of 2-DG on gene expressions associated with development of atherosclerosis and/or aneurysm in cultured macrophages were evaluated by DNA microarray (Agilent). The evaluated genes associated with atherosclerosis induction- and/or aneurysm formation were MMP-1 and MMP-9, chemokines (CCL-2 and CCL-8) and inflammatory cytokines (TNF-α and IL-6) (Libby P., Inflammation in atherosclerosis, Nature 2002, 420 (6917): 868-874 and Tung W S, Lee J K, Thompson R W., Simultaneous analysis of 1176 gene products in normal human aorta and abdominal aortic aneurysms using a membrane-based complementary DNA expression array. J Vasc Surg. 2001, 34(1): 143-150). Monocytic cells (U937) were stimulated with 10 nmol/L phorbol ester (PMA) for differentiation to macrophages. Some U937 cells were pretreated with 2-DG and then stimulated with 10 nmol/L PMA. As control cells, monocytic cells (U937) to which neither phorbol ester nor 2-DG had been administered were used. At 24 hours after stimulation, cells were collected, RNA was extracted, cDNA was constructed from RNA, and then the resultant was arrayed. The results of arraying were analyzed by GeneSpring GX10 software, so that the expression levels of the atherosclerosis induction- and/or aneurysm-related genes of each cell sample were evaluated. […]

MMP-9 [4] = assay: MMP-9 activity in ex vivo culture of human AAA wall, zymogram; assay type: cell-based; conditions: FIG. 2 D
Method: as §1, §2
In the meantime, U937 cells were pretreated with a glucose transporter inhibitor (cytochalasin or phloretin), and then stimulated with 10 nmol/L PMA. […]

[5] = system: abdominal aorta aneurysm formation; assay: Calcium chloride application-induced mouse aneurysm model; assay type: in vivo
Method: The mouse aneurysm model was induced by peri-aortic application of calcium chloride to 8-week-old male C57BL/6J mice.
2-DG was intraperitoneally administered at 100 mg/kg body weight or 1 g/kg body weight/day to the mouse aneurysm model for 28 days. After 28 days, the abdominal aorta was removed and then the diameter thereof was measured. An abdominal aorta was removed similarly from mice to which saline had been administered instead of 2-DG after application of calcium chloride as a negative control, and a mouse that had been treated in the same manner except for application of sodium chloride instead of calcium chloride as a control, and then the diameter of each thereof was measured.
Panel B is a graph showing the diameter (mm) of the abdominal aorta removed from each group.

Compound	PMA-induced MMP-9 activity (MMP-9 [1])	aneurysm formation (aortic diameter) [2]	SIRT1 gene expression level (SIRT1 gene)	expression levels of atherosclerosis induction- and/or aneurysm-related genes (MMP-1, CCL-2, TNF-α, MMP-9, CCL-8, IL-6), mRNA [3]	MMP-9 activity in ex vivo culture of the human AAA wall (MMP-9 [4])	expansion of aortic diameter following application of calcium chloride ([5]; C57BL/6J mice, 100 mg/kg or 1 g/kg body weight/day intraperitoneally for 28 days, FIG. 3)	vascular wall structure (tunica media layers, cytoprotective effect) ([5]; calcium chloride mouse aneurysm model, mice treated with 2-DG)
O=C(CCc1ccc(O)cc1)c1c(O)cc(O)cc1O [phloretin]	decreased						
cytochalasin	decreased						
O=CC[C@@H](O)[C@H](O)[C@H](O)CO [2-DG, 2-deoxyglucose]	decreased	suppressed	significantly increased	decreased	suppressed	suppressed	maintained the vascular wall structure

Reference: patent US20130211059A1, “COMPOSITION SUPPRESSING MATRIX-METALLOPROTEINASE ACTIVITY” (University of Miyazaki, priority 2010, published 2013)
